Measured values published in patent US20160219881A1, “HERBICIDALLY ACTIVE 2-HALOGEN-4-ALKYNYL-PHENYL-PYRAZOLIDINE-DIONE OR PYRROLIDINE-DIONE DERIVATIVES” (SYNGENTA LIMITED, priority 2013, published 2016).

How the values were obtained:
[1] = system: Alopecurus myosuroides (ALOMY); experiment: Test 1A glasshouse assay, pre-emergence herbicidal activity; type: in vivo; settings: 312 h, 13 days after application, read-out: Pre-Emergence Herbicidal Activity (% Phytotoxicity) ALOMY
Protocol: (§1) Seeds of a variety of test species are sown in standard soil (usually sandy soil) in pots. After cultivation for one day (pre-emergence) or after 8 days cultivation (post-emergence) under controlled conditions in a glasshouse (at 24/16° C., day/night; 14 hours light; 65% humidity), the plants are sprayed with an aqueous spray solution derived from the formulation of the technical active ingredient (compound) in acetone/water (50:50) solution containing 0.5% Tween 20 (polyoxyethylene sorbitan monolaurate, CAS RN 9005-64-5). The test plants are then grown under controlled conditions in a glasshouse (at 24/16° C., day/night; 14 hours light; 65% humidity) and watered twice daily. 13 days after application of the test compounds, for pre- and post-emergence, the test is evaluated visually for percentage phytotoxicity to each plant (where 100%=total damage to plant; 0%=no damage to plant).
(§2) Alopecurus myosuroides (ALOMY), Setaria faberi (SETFA), Echinochloa crus-galli (ECHCG), Amaranthus retroflexus (AMARE), and Abutilon theophasti Medik. (ABUTH, common English name “velvetleaf”). Of these, Alopecurus myosuroides (ALOMY), Setaria faberi (SETFA), and Echinochloa crus-galli (ECHCG) are grassy monocotyledonous weeds.
Lolium perenne (LOLPE), Triticum aestivum (TRZAW, winter wheat), Alopecurus myosuroides (ALOMY), Echinochloa crus-galli (ECHCG), and Avena fatua (AVEFA). All these are grassy monocotyledonous weeds and/or (for wheat) grassy crops.

[2] = system: Alopecurus myosuroides (ALOMY); experiment: Test 1A glasshouse assay, post-emergence herbicidal activity; type: in vivo; settings: 312 h, 13 days after application, read-out: Post-Emergence Herbicidal Activity (% Phytotoxicity) ALOMY
Protocol: as §1
(§3) Alopecurus myosuroides (ALOMY), Setaria faberi (SETFA), Echinochloa crus-galli (ECHCG), Amaranthus retroflexus (AMARE), and Abutilon theophasti Medik. (ABUTH, common English name “velvetleaf”). Of these, Alopecurus myosuroides (ALOMY), Setaria faberi (SETFA), and Echinochloa crus-galli (ECHCG) are grassy monocotyledonous weeds. […]

[3] = system: Echinochloa crus-galli (ECHCG); experiment: as above; type: in vivo; settings: 312 h, 13 days after application, read-out: Post-Emergence Herbicidal Activity (% Phytotoxicity) ECHCG
Protocol: as §1, §3

[4] = system: Abutilon theophasti Medik. (ABUTH); experiment: Test 1A glasshouse assay, pre-emergence herbicidal activity; type: in vivo; settings: 312 h, 250 g/ha, 13 days after application, read-out: Pre-Emergence Herbicidal Activity (% Phytotoxicity) ABUTH
Protocol: as §1, §2

[5] = system: Setaria faberi (SETFA); experiment: as above; type: in vivo; settings: 312 h, 250 g/ha, 13 days after application, read-out: Pre-Emergence Herbicidal Activity (% Phytotoxicity) SET FA
Protocol: as §1, §2

[6] = system: Amaranthus retroflexus (AMARE); experiment: as above; type: in vivo; settings: 312 h, 250 g/ha, 13 days after application, read-out: Pre-Emergence Herbicidal Activity (% Phytotoxicity) AMARE
Protocol: as §1, §2

[7] = system: ZEAMX; experiment: Biological Example 3 (Test 2 glasshouse assay), post-emergence herbicidal activity; type: in vivo
Protocol: (§4) Seeds of a variety of monocotyledonous and dicotyledonous test plants are sown in standard soil in pots. The plants are cultivated for one day (for pre-emergence) or for about 12 days (range=10-13 days) (for post-emergence) under controlled conditions in a glasshouse (warm climate species at 24/18° C., cool climate species at 20/16° C., both at day/night; 16 hours light; 65% humidity). An “instant formulation”, known as the “IF50”, containing 50 g/litre (i.e. 5% w/v) of the “technical” (i.e. unformulated) active ingredient is prepared by dissolving the active ingredient in a mixture of organic solvents and emulsifier, details of which are provided in the Table below. This IF50 is then mixed with a small, variable amount of acetone to aid dissolution, before addition of a 0.2% v/v aqueous solution of the adjuvant X-77 (which is a mixture of alkyl aryl polyoxyethylene glycols and free fatty acids in isopropanol, CAS Registry number 11097-66-8), as the aqueous diluent, to form an aqueous spray solution which contains a predetermined concentration of the active ingredient (which varies depending on the application rate of the active ingredient to the plants) and 0.2% v/v of the adjuvant X-77. This aqueous spray solution is then sprayed onto the plants, after one day's cultivation (for pre-emergence) or after about 12 days' cultivation (for post-emergence). The test plants are then grown on, in a glasshouse (greenhouse) under controlled conditions (at either 24/18° C. or 20/16° C. (day/night) as mentioned above; 16 hours light; 65% humidity) and are watered twice daily. Either 15 days after application of the test compound (15 DAA) (for post-emergence), or 20 days after application of the test compound (20 DAA) (for pre-emergence), the test plants are evaluated visually, and an assessed percentage phytotoxicity score is given for each compound application on each plant species (where 100%=total damage to plant; 0%=no damage to plant).

[8] = system: POAAN; experiment: as above; type: in vivo, Poa annua
Protocol: as §4

[9] = system: Abutilon theophasti Medik. (ABUTH); experiment: Test 1A glasshouse assay, post-emergence herbicidal activity; type: in vivo; settings: 312 h, 13 days after application, read-out: Post-Emergence Herbicidal Activity (% Phytotoxicity) ABUTH
Protocol: as §1, §2

[10] = system: Setaria faberi (SETFA); experiment: as above; type: in vivo; settings: 312 h, 13 days after application, read-out: Post-Emergence Herbicidal Activity (% Phytotoxicity) SET FA
Protocol: as §1, §2

[11] = system: Amaranthus retroflexus (AMARE); experiment: as above; type: in vivo; settings: 312 h, 13 days after application, read-out: Post-Emergence Herbicidal Activity (% Phytotoxicity) AMARE
Protocol: as §1, §2

Structure (SMILES)	inhibition at 250 g/ha [1] [%]	inhibition at 250 g/ha [2] [%]	inhibition at 250 g/ha [3] [%]	inhibition at 250 g/ha [4] [%]	inhibition at 250 g/ha [5] [%]	inhibition at 250 g/ha [6] [%]	Post-Emergence Herbicidal Activity (Percentage Phytotoxicity) ZEAMX ([7]; 30 g/ha (rate by row order)) [%]	Post-Emergence Herbicidal Activity (Percentage Phytotoxicity) ZEAMX ([7]; 125 g/ha (rate by row order)) [%]	Post-Emergence Herbicidal Activity (Percentage Phytotoxicity) POAAN ([8]; 30 g/ha (rate by row order)) [%]	Post-Emergence Herbicidal Activity (Percentage Phytotoxicity) POAAN ([8]; 125 g/ha (rate by row order)) [%]	inhibition at 250 g/ha [9] [%]	inhibition at 250 g/ha [10] [%]	inhibition at 250 g/ha [11] [%]	inhibition at 30 g/ha [2] [%]	inhibition at 30 g/ha [3] [%]	Post-Emergence Herbicidal Activity (Percentage Phytotoxicity) ZEAMX ([7]; 8 g/ha (rate by row order)) [%]	Post-Emergence Herbicidal Activity (Percentage Phytotoxicity) POAAN ([8]; 8 g/ha (rate by row order)) [%]	inhibition at 30 g/ha [9] [%]	inhibition at 30 g/ha [10] [%]	inhibition at 30 g/ha [11] [%]	also measured
CC#Cc1cc(C)c(C2C(=O)N(C)N(C)C2=O)c(C)c1 [Compound A1]	0	0	40	0	30	0	90	100	50	80	10	40	0								
CC#Cc1cc(C)c(C2C(=O)N3CCCCCN3C2=O)c(C)c1 [Compound A23, 2-(2,6-dimethyl-4-prop-1-ynyl-phenyl)-6,7,8,9-tetrahydro-5H-pyrazolo[1,2-a]diazepine-1,3-dione]	90	80	80	10	50	80	0	30	10	70	60	80	30								
CC#Cc1cc(C)c(C2C(=O)C(Cc3ccccn3)N(C)C2=O)c(C)c1 (centres unmarked) [Compound A50, 3-(2,6-dimethyl-4-prop-1-ynyl-phenyl)-1-methyl-5-(2-pyridylmethyl)pyrrolidine-2,4-dione]	90	100	100																		inhibition at 62.5 g/ha ([1]; 62.5 g/ha): 70%; inhibition at 15.625 g/ha ([2]; 15.625 g/ha): 30%; inhibition at 62.5 g/ha ([2]; 62.5 g/ha): 90%; inhibition at 15.625 g/ha ([3]; 15.625 g/ha): 80%; inhibition at 62.5 g/ha ([3]; 62.5 g/ha): 100%
CC#Cc1cc(C)c(-c2c(OC(=O)C(C)(C)C)n(C)n(C)c2=O)c(C)c1 [Compound P1]	100	90	100	10	100	10	70	100	0	70	70	90	20	80	80	60	0	30	70	0	
CC#Cc1cc(C)c(-c2c(OC(=O)C(C)(C)C)n3n(c2=O)CCOCC3)c(C)c1 [Compound P4]	100	90	100	80	100	100	90	100	70	90	70	100	10	70	100	30	50	70	70	0	
